This is an account of results in US7276531B2, “G-lactam derivatives as prostaglandin agonists” (Applied Research Systems ARS Holding N.V., priority 2003, dated 2007).

The target in one assay is h-EP2 (Homo sapiens, UniProt P43116). The assay is described as follows: Prostaglandin EP2 receptor binding assay (3H-PGE2 SPA). The conditions noted are these: EP2 receptor membranes, 20 nM 3H-PGE2, pH 6.0. As for the experimental part: Compounds of the invention were tested in an EP2 receptor binding assay of the following protocol. As referred to herein, the term an “EP2 receptor binding assay” designates the following protocol.
Chain of h-EP2 (P43116 whole entry): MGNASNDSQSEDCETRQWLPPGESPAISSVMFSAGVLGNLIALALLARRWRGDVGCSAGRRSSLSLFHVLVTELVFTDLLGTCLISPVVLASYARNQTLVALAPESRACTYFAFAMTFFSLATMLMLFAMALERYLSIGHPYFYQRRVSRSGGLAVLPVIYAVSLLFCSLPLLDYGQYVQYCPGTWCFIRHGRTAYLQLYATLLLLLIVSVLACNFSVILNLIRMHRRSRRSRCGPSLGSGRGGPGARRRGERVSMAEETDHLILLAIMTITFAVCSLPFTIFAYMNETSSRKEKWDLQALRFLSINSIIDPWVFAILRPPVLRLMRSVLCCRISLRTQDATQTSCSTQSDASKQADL

The target in another assay is h-EP4 (Homo sapiens, UniProt P35408). The assay is described as follows: EP4 receptor binding assay (3H-PGE2 SPA). The note with it: EP4 receptor membranes, 20 nM 3H-PGE2, pH 6.0. How it is done:
Compounds of the invention were tested in an EP4 receptor binding assay of the following protocol.

Another assay addresses T1, hEP4 receptors (Homo sapiens, UniProt P35408).
T1 construct: expressed in transfected cells; host or cells: HEK293-EBNA
The assay is described as follows: EP4 cAMP assay, HEK293-EBNA cells transfected with pCEP4-hEP4 receptors. It is filed as cell-based. The conditions noted are these: total cAMP, 1 hour. As for the experimental part:
Compounds of the invention were tested in a total cAMP assay as follows. HEK293-EBNA cells transfected with pCEP4-hEP4 receptors were seeded in 96 well opaque plate (Costar #3917) at 4×10^4 cells per well in 100 μl of culture medium (D-MEM/F12 supplemented with 10% FBS, […] L-glutamine, and 250 μg/ml of hygromycin; all from GibcoBRL) and incubated at 37° C. After overnight incubation, the medium was removed from each well and replaced with 45 μl of assay medium consisted of phenol red free D-MEM/F-12, 0.1% BSA (GibcoBRL) and 0.1 mM 3-isobutyl-1-methyl-xanthine (Sigma). After 15 minutes of incubation at 37° C., 16-16-dimethyl PGE-2 or compounds at desired concentrations in 20 μl of assay medium were added to cells and further incubated at 37° C. for 1 hour. Total cAMP (intra- and extra-cellular) was measured by using a cAMP-screen ELISA System (Tropix, #CS1000).

In the next assay the target is T2, hEP2 receptors (Homo sapiens, UniProt P43116).
T2 construct: expressed in transfected cells; host or cells: HEK293-EBNA
T2 sequence (P43116 whole entry): as above
The assay is described as follows: EP2 cAMP assay, HEK293-EBNA cells transfected with pCEP4-hEP2 receptors. It is filed as cell-based. The note with it: total cAMP, 1 hour. How it is done: Compounds of the invention were tested in a total cAMP assay as follows. […] After overnight incubation, the medium was removed from each well and replaced with 45 μl of assay medium consisted of phenol red free D-MEM/F-12, 0.1% BSA (GibcoBRL) and 0.1 mM 3-isobutyl-1-methyl-xanthine (Sigma). […] Total cAMP (intra- and extra-cellular) was measured by using a cAMP-screen ELISA System (Tropix, #CS1000).
Background: cAMP levels reflect the balance of adenylyl cyclase and phosphodiesterase activity.

The subject of assay [1] is mature mouse ovulation induction model. The assay can be described thus: In vivo ovulation assay (mature mouse ovulation induction model). The conditions noted are these: Mus musculus, po, read-out: calculated ED50 (dose of drug which produces 50% of its effect), ovulation; p.o. administration route, mice. As for the experimental part: Ovulation induction activity of compounds of the invention was tested in a mature mouse ovulation induction model.
Mature 10-week-old CD-mice were used. Reagents were prepared as follows: PMSG (pregnant mare serum gonadotropin) (Calbiochem, cat #367222) and hCG (Serono) are diluted in PBS. PGE2 (Cayman, Ann Arbor Mich.) was dissolved in ethanol and diluted with 0.154 M […] Buffer (pH 8.0) to final concentration of ethanol of less than 3 percent. A compound of the invention (based on solubility) was pre-dissolved in ethanol, DMSO or other reagents. The compound of the invention was then diluted with saline or other diluents such as PBS or NP3S (5% N-methyl-pyrrolidinone/30% PEG400/25% PEG200/20% Propylene Glycol in saline). PMSG stimulates ovarian follicular development. After PMSG stimulation, the mature follicules can be stimulated to rupture and release oocytes by an ovulation trigger, such as hCG or a compound of the invention.
The following test protocol is employed for the test animals (typically 5 animals per test group). • Day 1: Inject 5 IU PMSG in 200 μl PBS (i.p. 15:00 PM) • Day 2: No administration • Day 3: Injection of ovulation trigger hCG (i.p.) or hCG replacement (PGE2 or compound of the invention, s.c., i.v. or oral route), 15:00 PM • Day 4: Eighteen hours after injections of the ovulation triggers, animals were sacrificed by CO2 asphyxiation and abdominal cavities were opened using fine scissors and forceps. Uterus, oviducts and ovaries were collected and placed in pre-labeled dishes containing phosphate buffered saline (PBS). The collected tissues were transferred to the laboratory and intact oviduct carefully dissected out from uterus and ovary under the dissection microscope. The dissected oviducts were placed on the glass microscopic slide and covered with another slide. Two slides were taped on two edges. The numbers of ovulated ova in the oviducts were counted using upright microscope with 4× objective and recorded. […]

Molecules are shown by their SMILES.

As a reminder, the Ki is a dissociation constant, usually derived from enzyme kinetics or from competition with a known ligand. A high value points to weaker binding. In general, EC50 refers to the concentration at which the effect is half-maximal. Lower therefore signals a more potent agent. Broadly, the ED50 is the dose at which the effect has come halfway, by size or by number of responders.

T1 sequence (P35408 whole entry): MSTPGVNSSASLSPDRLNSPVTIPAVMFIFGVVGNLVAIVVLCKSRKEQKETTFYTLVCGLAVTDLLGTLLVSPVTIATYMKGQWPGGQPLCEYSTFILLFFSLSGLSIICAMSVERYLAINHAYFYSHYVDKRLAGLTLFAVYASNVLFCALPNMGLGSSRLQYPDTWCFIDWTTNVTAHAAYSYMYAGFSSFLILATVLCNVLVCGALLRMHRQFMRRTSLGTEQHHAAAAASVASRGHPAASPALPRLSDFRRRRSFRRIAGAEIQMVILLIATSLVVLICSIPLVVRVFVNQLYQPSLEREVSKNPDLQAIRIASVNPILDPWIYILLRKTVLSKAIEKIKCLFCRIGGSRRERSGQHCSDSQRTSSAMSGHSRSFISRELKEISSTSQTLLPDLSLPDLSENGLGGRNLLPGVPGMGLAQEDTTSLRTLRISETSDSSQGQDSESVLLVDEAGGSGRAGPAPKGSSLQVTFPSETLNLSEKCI
Chain of h-EP4 (P35408 whole entry): as above

For `C/C(=C\C=C/[C@H]1CCC(=O)N1CCc1ccc(C(=O)O)cc1)CC1CCCC1` [Example 30, 4-(2-{(2)-2-[(1Z,3E)-5-cyclopentyl-4-methylpenta-1,3-dienyl]-5-oxopyrrolidin-1-yl}ethyl)benzoic acid], the inhibition constant (Ki) on h-EP2 is 60 nM; at h-EP4 it was 117 nM.

With `CC/C=C/C=C\[C@H]1CCC(=O)N1CCc1ccc(C(=O)O)cc1` [Example 7, 4-(2-{(2R)-2-[(1Z,3E)-hexa-1,3-dienyl]-5-oxopyrrolidin-1-yl}ethyl)benzoic acid], the Ki at h-EP2 stood at 1530 nM; on h-EP4 it was 71 nM. In addition, the EC50 on hEP4 receptors worked out at 2 nM; at hEP2 receptors, 2600 nM.

With `O=C(O)c1ccc(CCN2C(=O)CC[C@@H]2/C=C\C=C2CCCCC2)cc1` [Example 56], the Ki was 27 nM at h-EP2 and 307 nM on h-EP4.

Regarding `C/C(=C\C=C\[C@H]1CCC(=O)N1CCc1ccc(C(=O)O)cc1)C1CC1` [Example 63, 4-(2-{(2R)-2-[(1E,3E)-4-cyclopropylpenta-1,3-dienyl]-5-oxopyrrolidin-1-yl}ethyl)benzoic acid], the Ki at h-EP2 came to 277 nM; on h-EP4 it was 165 nM.

For the molecule `CC(C)=CCC/C(C)=C/C=C/[C@H]1CCC(=O)N1CCc1ccc(C(=O)O)cc1` [Example 12, 4-(2-{(2R)-2-[(1E,3E)-4,8-dimethylnona-1,3,7-trienyl]-5-oxopyrrolidin-1-yl}ethyl)benzoic acid], the inhibition constant Ki at h-EP2 turned out to be 750 nM; on h-EP4, 470 nM.

On to `CCCC/C=C/C=C\[C@H]1CCC(=O)N1CCc1ccc(C(=O)O)cc1` [Example 1, 4-(2-{(2R)-2-[(1Z,3E)-octa-1,3-dienyl]-5-oxopyrrolidin-1-yl}ethyl)benzoic acid], for which the Ki stood at 88 nM at h-EP2 and 25 nM on h-EP4. For the same molecule, the EC50 at hEP4 receptors was 20 nM; at hEP2 receptors, 197 nM.

For `C/C(=C\C=C\[C@H]1CCC(=O)N1CCc1ccc(C(=O)O)cc1)C(C)C` [Example 55, 4-(2-{(2R)-2-[(1E,3E)-4,5-dimethylhexa-1,3-dienyl]-5-oxopyrrolidin-1-yl}ethyl)benzoic acid], the values for the Ki at h-EP2 and at h-EP4 were 36 nM and 164 nM, respectively.

For the molecule `CCCC/C(C)=C/C=C\[C@H]1CCC(=O)N1CCCc1ccc(C(=O)O)s1` (single isomer, unassigned) [Example 19], the results for the Ki at h-EP2 and at h-EP4 were 60 nM and 6 nM, respectively. The figures for the EC50 on hEP4 receptors and on hEP2 receptors were 2 nM and 49 nM, respectively.

Take `CC(C)=CCC/C(C)=C/C=C\[C@H]1CCC(=O)N1CCc1ccc(C(=O)O)cc1` [Example 11, 4-(2-{(2R)-2-[(1Z,3E)-4,8-dimethylnona-1,3,7-trienyl]-5-oxopyrrolidin-1-yl}ethyl)benzoic acid]: the Ki on h-EP2 is 410 nM; on h-EP4 it was 45 nM. The values for the EC50 at hEP4 receptors and on hEP2 receptors were 2 nM and 1050 nM, respectively.

Consider `CCC/C(C)=C/C=C\[C@H]1CCC(=O)N1CCc1ccc(C(=O)O)cc1` [Example 44, 4-(2-{(2R)-2-[(1Z,3E)-4-methylhepta-1,3-dienyl]-5-oxopyrrolidin-1-yl}ethyl)benzoic acid], for which the Ki amounted to 79 nM on h-EP2 and 6 nM at h-EP4. Besides, the ED50 in assay [1] was 1 mg/kg.

Take `CCCC/C=C/C=C\[C@H]1CCC(=O)N1CCCc1ccc(C(=O)O)s1` [Example 17, 5-(3-{(2R)-2-[(1Z,3E)-octa-1,3-dienyl]-5-oxopyrrolidin-1-yl}propyl)thiophene-2-carboxylic acid]: the Ki on h-EP2 was 44 nM; at h-EP4, 51 nM.

Regarding `C/C(=C\C=C/[C@H]1CCC(=O)N1CCc1ccc(C(=O)O)cc1)c1ccccc1` [Example 32, 4-(2-{(2R)-2-[(1Z,3E)-4-phenylpenta-1,3-dienyl]-5-oxopyrrolidin-1-yl}ethyl)benzoic acid], the Ki on h-EP2 amounted to 749 nM; on h-EP4, 29 nM.

As for `O=C(O)c1ccc(CCN2C(=O)CC[C@@H]2/C=C\C=C(/c2ccccc2)C(F)(F)F)cc1` [Example 58], the Ki is 100 nM on h-EP2 and 69 nM on h-EP4.

For `CCCC/C(C)=C/C=C\[C@H]1CCC(=O)N1CCCc1ccc(C(=O)O)s1` (single isomer, unassigned) [Example 13], the Ki on h-EP2 stood at 60 nM; on h-EP4, 6 nM.
